Consider one compound from patent publication US12129252B1, “Pyrrolo[2,3-c][2,6]naphthyridine-8-carboxylic acids as CK2 inhibitors” (KING FAISAL UNIVERSITY, priority 2024, dated 2024).

Each structure is given as a SMILES string. pIC50: −log10 of the molar value.

One assay has as its system PC3 (prostate). Briefly: In vitro cytotoxic activity assay (MTT), PC3. The class given is cell-based. The following applies: Homo sapiens; cells exposed for 96 hours; 50 % inhibition of cell proliferation; read-out: Cytotoxicity activity IC50, PC3 (prostate). As to the method: (§1) Compounds 1-15 were screened for their in vitro cytotoxic activity utilizing a 3-(4,5-dimethyl-thiazol-2-yl)-2,5-diphenyltetrazolium bromide (MTT) assay against selected cancer human cell lines consisting of PC3 (prostate), HCT116 (colon), A375 (melanoma), H1299 (lung), MIAPaCa-2 (pancreas), HL60 (leukemia), MCF7 (breast), MDA-MB-231 (breast) (T. Mosmann, J. Immunol. Meth., 1983, 65, 55-63). The cells were cultured at 37° C. in RMPI1640 medium supplemented with 10% fetal bovine serum, 50 IU/mL penicillin, and 50 μg/mL streptomycin in a 5% CO2 incubator. All cells were sub-cultured 3 times/week by trypsinisation. Viable cells were seeded and allowed to adhere for 12 hours before a test drug was added in 96-well plates at an initial density of 1.0×10^5 cells/mL. Tumor cell lines were separately exposed to various concentrations of the tested compounds followed by incubation at a temperature of 37° C. during 96 hours inside a medium of fresh RMPI 1640. Cells were subsequently incubated at 37° C. using MTT at 0.5 mg/mL during 4 hours. After removal of supernatant, formazan crystals were dissolved in isopropanol and the optical density was measured at 570 nm. CX-4945 was used as a positive control.

Another assay concerns HCT116 (colon). Put plainly: In vitro cytotoxic activity assay (MTT), HCT116. The note with it: Homo sapiens, HCT-116; cells exposed for 96 hours; 50 % inhibition of cell proliferation; read-out: Cytotoxicity activity IC50, HCT116 (colon). The class given is cell-based. As to the method: as §1
The next assay concerns A375 (melanoma). Briefly: In vitro cytotoxic activity assay (MTT), A375. The note with it: Homo sapiens, A-375; cells exposed for 96 hours; 50 % inhibition of cell proliferation; read-out: Cytotoxicity activity IC50, A375 (melanoma). The assay is classed as cell-based. As to the method:
as §1

The subject of a further assay is H1299 (lung). Briefly: In vitro cytotoxic activity assay (MTT), H1299. The assay is classed as cell-based. The note with it: Homo sapiens, NCI-H1299; cells exposed for 96 hours; 50 % inhibition of cell proliferation; read-out: Cytotoxicity activity IC50, H1299 (lung). As to the method: as §1
Another assay relates to MIAPaCa-2 (pancreas). Put plainly: In vitro cytotoxic activity assay (MTT), MIAPaCa-2. The assay is classed as cell-based. The following applies: Homo sapiens, MIA PaCa-2; cells exposed for 96 hours; 50 % inhibition of cell proliferation; read-out: Cytotoxicity activity IC50, MIAPaCa-2 (pancreas). As to the method: as §1
In another assay the test system is HL60 (leukemia). Put plainly: In vitro cytotoxic activity assay (MTT), HL60. The class given is cell-based. The following applies: Homo sapiens, HL-60; cells exposed for 96 hours; 50 % inhibition of cell proliferation; read-out: Cytotoxicity activity IC50, HL60 (leukemia). As to the method: as §1
A further assay relates to MCF7 (breast). Put plainly: In vitro cytotoxic activity assay (MTT), MCF7. The class given is cell-based. The following applies: Homo sapiens, cells exposed for 96 hours, 50 % inhibition of cell proliferation, read-out: Cytotoxicity activity IC50, MCF7 (breast). As to the method: as §1
The test system of another assay is MDA-MB-231 (breast). Briefly: In vitro cytotoxic activity assay (MTT), MDA-MB-231. The class given is cell-based. The following applies: Homo sapiens, cells exposed for 96 hours, 50 % inhibition of cell proliferation, read-out: Cytotoxicity activity IC50, MDA-MB-231 (breast). As to the method: as §1
Assay [1] has as its target T1, recombinant human CK2 (RRββ-holoenzyme) (Homo sapiens, UniProt P68400).
T1 construct: purchased Millipore
Put plainly: CK2 Kinase Assay. The assay is classed as biochemical. The following applies: final ATP concentration 15 μM; 10 min at 30° C.; read-out: protein kinase CK2 inhibition IC50. As to the method: CK2 Kinase Assay was conducted using the protocol as described in Pierre F. et al; J. Med. Chem. 2011, 54, 635-654. The tested compounds in aqueous solution were added at a volume of 10 μL to a reaction mixture comprising 10 μL of assay dilution buffer (ADB; 20 mM MOPS, pH 7.2, 25 mM β-glycerol phosphate, 5 mM EGTA, 1 mM sodium orthovanadate, and 1 mM dithiothreitol), 10 μL of substrate peptide (RRRDDDSDDD, dissolved in ADB at a concentration of 1 mM), 10 μL of recombinant human CK2 (RRββ-holoenzyme, 25 ng dissolved in ADB; Millipore). Reactions were initiated by the addition of 10 μL of ATP solution (90% 75 mMMgCl2, 75 μM ATP (final ATP concentration: 15 μM) dissolved in ADB; 10% [γ-33P] ATP (stock 1 mCi/100 μL; 3000 Ci/mmol (Perkin-Elmer) and maintained for 10 min at 30° C. The reactions were quenched with 100 μL of 0.75% phosphoric acid and then transferred to and filtered through a phosphor cellulose filter plate (Millipore). After washing each well five times with 0.75% phosphoric acid, the plate was dried under vacuum for 5 min and, following the addition of 15 μL of scintillation fluid to each well, the residual radioactivity was measured using a Wallac […] counter. The IC50 values were derived from eight concentrations of test inhibitors.

T1 sequence (P68400 whole entry): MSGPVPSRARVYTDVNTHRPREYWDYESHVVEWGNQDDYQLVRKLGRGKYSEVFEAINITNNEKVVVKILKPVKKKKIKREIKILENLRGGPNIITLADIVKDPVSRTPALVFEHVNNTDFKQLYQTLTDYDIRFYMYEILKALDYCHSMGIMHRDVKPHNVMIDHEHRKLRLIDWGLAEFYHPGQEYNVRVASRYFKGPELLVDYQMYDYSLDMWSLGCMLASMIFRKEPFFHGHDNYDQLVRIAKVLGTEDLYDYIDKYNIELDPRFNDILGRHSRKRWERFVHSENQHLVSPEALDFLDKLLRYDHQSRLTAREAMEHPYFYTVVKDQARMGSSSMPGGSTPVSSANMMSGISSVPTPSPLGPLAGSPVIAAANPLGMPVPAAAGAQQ
T1 sequence (P67870 whole entry partner): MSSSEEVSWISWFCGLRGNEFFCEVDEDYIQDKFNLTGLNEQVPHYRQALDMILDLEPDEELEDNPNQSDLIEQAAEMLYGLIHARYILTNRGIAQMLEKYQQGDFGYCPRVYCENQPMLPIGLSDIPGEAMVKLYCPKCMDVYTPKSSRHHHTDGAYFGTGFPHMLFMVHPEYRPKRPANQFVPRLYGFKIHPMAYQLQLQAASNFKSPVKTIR

For `O=C(O)c1cc2c(nc(Nc3cccc(Cl)c3)c3ccncc32)[nH]1` [Compound 1, 5-((3-chlorophenyl)amino)-7H-pyrrolo[2,3-c][2,6]naphthyridine-8-carboxylic Acid], the pIC50 (commonly the negative decadic logarithm of the IC50, by convention in mol/L) is 5.68 with PC3 (prostate); 6.00 with HCT116 (colon); 5.54 in the assay on A375 (melanoma); 5.89 in the assay with H1299 (lung); 6.05 in the assay on MIAPaCa-2 (pancreas); 5.66 with HL60 (leukemia). Besides, the pIC50 in the assay on MCF7 (breast) is 5.46; in the assay with MDA-MB-231 (breast), 5.42; in assay [1], 8.10.
